# Values joined by “and” are separate entries in the source; they are usually repeats but may differ in a detail not shown here. Equal values may be shown once. Marks after values point to notes of the source that are not given here.
# Assays:
# [1] = Electrochemical Cu2+/Cu+ reduction potentials of copper-bound CG complexes; type: physicochemical; conditions: PBS buffer, pH 7.4
# Description: (§1) CG6 is a unique member of the CG family that is equally responsive to both Cu^+ and Cu^2+. Addition of either Cu^+ or Cu^2+ to CG6 triggers a maximum 73% relaxivity turn-on from r1=2.2 mM^−1s^−1 to r1=3.8 mM^−1s^−1. […] On the other hand, copper-bound CG6, which responds to both Cu^+ and Cu^2+, has the least positive Cu^2+/Cu^+ reduction potential at +0.13 V.
# [2] = Longitudinal relaxivity (r1) from T1 measurements at 60 MHz, absence of copper; type: physicochemical; conditions: for r1 (no Cu): no copper, 60 MHz, 20 mM HEPES buffer, pH 7, 37° C., 0.2 mM Gd^3+
# Description: (§2) The longitudinal relaxivity values for the CG contrast agents in the absence or presence of copper ions were determined using T1 measurements at 60 MHz. Studies were performed at 37° C. in 20 mM HEPES buffered to pH 7, and solutions of the purified CG sensors for relaxivity experiments contained 0.2 mM Gd^3+ as determined by ICP-OES. Spectroscopic data are collected in Table 1.
# Nuclear magnetic relaxation dispersion (NMRD) experiments provide supporting evidence for this proposal (vide infra).
# [3] = Nuclear magnetic relaxation dispersion (NMRD) profiles, Solomon-Bloembergen-Morgan fit; type: physicochemical; conditions: for τs0 (electronic relaxation time at zero field) / r1p 20 MHz 25° C. / a (distance of closest approach of outer-sphere water protons) / Δ^2 (average quadratic transient zero field splitting) / τv (electronic correlation time) / q / τR (rotational correlation time): copper free; for r1p 20 MHz 25° C.: 0.5 mM, 20 mM HEPES pH 7; for a (distance of closest approach of outer-sphere water protons) / Δ^2 (average quadratic transient zero field splitting) / τv (electronic correlation time): best-fit value; for q: fixed in the fitting procedure; for τR (rotational correlation time): not experimentally determined, assumed equal to corresponding q ≠ 0 complex (CG5: average of the other complexes)
# Description: FIG. 9. ^1H Nuclear magnetic relaxation dispersion profiles of CG3 and CG3+Cu^+ acquired at 25° C. The solid lines represent the best fit profiles.
# As a secondary, independent set of experiments to further probe the mechanisms of copper ion sensing by the CG contrast agents, we also performed nuclear magnetic relaxation dispersion (NMRD) measurements of these sensors in the absence and in the presence of copper ions using a field cycling relaxometer (FIG. 9). The profiles obtained were analyzed following Solomon-Bloembergen-Morgan theory^36-38 for the inner-sphere relaxivity and the Freed model^115 for the outer-sphere relaxivity, fixing the diffusion coefficient (D) at […], the distance between Gd^3+ and the inner sphere water protons (r) at 3.1 Å, and the inner sphere exchange lifetime (τM) at 160 ns, the reported value for the parent complex Gd^3+-DO3A. Profiles were obtained for all compounds in the copper-free state. Profiles in the presence of Cu^n+ were obtained for CG2-4 (Cu^+) and CG6 (Cu^2+).
# In fact, the measured outer-sphere relaxivities were so low that, in order to obtain a reasonable fit, the distance of closest approach of outer-sphere water protons (a) was allowed to vary. The distances obtained for the CG complexes (4.2-4.8 Å) were markedly longer than what is observed for typical Gd^3+ contrast agents with greater water access (3.8-4 Å). These values correlate with the copper-free relaxivities of CG2-6; longer a values give lower relaxivities and shorter a values give higher relaxivities. For Cu^+-sensing agents CG2-4, the estimated change in q of 2 as determined by DIS measurements was also observed in the fitted NMRD data. In fact, any attempt to fit the observed NMRD profiles with q=1 led to very poor agreement between experimental and calculated values. The change in q of 1 for CG6 upon addition of Cu^2+ as determined by NMRD is consistent with the lower turn-on response observed with this complex compared to CG2-4. The reduced q modulation for CG6 relative to CG2-4 could indicate that the carboxylic acid moiety used for Cu^2+ binding also interacts with the Gd^3+ center in the Cu^2+-bound state. The fitted rotational correlation times (τR) for copper-bound CG complexes all fall within the range expected for Gd^3+ complexes with molecular weights of 700-800 D. τR values for copper-free CG2-6 were fixed to values close to their copper-bound analogues as fits of NMRD data for q=0 complexes are not sensitive to small changes in τR. The values of Δ^2 (average quadratic transient zero field splitting), τv (electronic correlation time), and τs0 (electronic relaxation time at zero field), which govern the electronic relaxation time, are relatively similar to each other. These NMRD values are closer to those of Gd^3+-DTPA than Gd^3+-DOTA, reflecting the asymmetry of CG2-6.^64
# [4] = Longitudinal relaxivity (r1) turn-on response to Cu+ from T1 measurements at 60 MHz; type: physicochemical; conditions: pH 7, 37° C.; for r1 (1 equiv Cu): 20 mM HEPES buffer
# Description: as §2
# Upon addition of up to 1 equiv of copper ions, the relaxivity values of the CG contrast agents increase, establishing the ability of these probes to sense copper using the MR modality (Table 1, FIG. 3). CG2, CG3, CG4, and CG5 respond to Cu^+ with relaxivity increases ranging from 92% to 360%. […] These values represent the largest relaxivity enhancements observed to date for metal-activated MR contrast agents and a ca. 9-fold improvement in copper ion response compared to CG1 (41% increase). The observed differences in turn-on Cu^+ responses for benzyl-substituted CG4 (290% increase) versus methyl-substituted CG5 (92% increase) with the same pyridyl-thioether receptor show the marked effects that small peripheral substitutions can have on relaxivity properties.
# [5] = Metal ion selectivity of relaxivity response (competing metal ions alone or with added copper); type: physicochemical; conditions: relaxivity at 60 MHz, 20 mM HEPES, pH 7, 37° C.
# Description: FIG. 6. Relaxivity responses of CG2 to various metal ions. White bars represent the addition of an excess of the appropriate metal ion (10 mM for Na^+, 2 mM for K^+, Mg^2+, and Ca^2+, and 0.2 mM for Fe^2+, Fe^3+, Cu^2+) to a 0.2 mM solution of CG2. Response to Zn^2+ was measured both at 0.2 mM Zn^2+ (Zn^2+1×) and 2 mM Zn^2+ (Zn^2+10×). Black bars represent the subsequent addition of 0.2 mM Cu^+ to the CG2 solution. Relaxivity measurements were acquired at 37° C. in 20 mM HEPES buffer, pH 7, at a proton Larmor frequency of 60 MHz.
# The potential ability of this new family of CG sensors to sense bioavailable copper pools in either or both its predominant oxidation states represents a significant advance over the initial CG1 compound.
# [6] = Apparent Kd for Cu+ by UV-visible absorption with competing ligand thiourea; type: binding; conditions: 20 mM HEPES buffer, pH 7, 25° C., 1:1 stoichiometry assumed, read-out: Kd (apparent dissociation constant)
# Description: FIG. 5. Normalized absorbance response of 0.2 mM CG2-6 to buffered Cu^+ (CG2-5) or Cu^2+ (CG6) solutions for Kd value determination. Spectra were acquired in 20 mM HEPES, pH 7.
# [7] = Dysprosium-induced 17O NMR shift (DIS) experiments for q; type: physicochemical; conditions: for q (estimated number of inner-sphere water molecules): calculated from q = 9 DyCl3
# Description: FIG. 8. Plot of [DyCG2] vs. −Δ ppm of the ^17O signal of H2O in the absence and presence of 1 equiv Cu^+. Spectra were acquired at room temperature in 20 mM HEPES buffer, pH 7, at a ^17O Larmor frequency of 67.8 MHz.
# To circumvent these issues, we turned our attention to an alternative method for obtaining q values, namely the application of ^17O NMR spectroscopy to Dy^3+ analogs of the CG sensors (DyCG2-6).^114 Specifically, interactions of water ligands with paramagnetic Dy^3+ ions lead to an upfield shift of the ^17O signals of H2O in a manner proportional to both the concentration of Dy^3+ and q. Moreover, this lanthanide-induced shift is largely insensitive to the non-water ligands coordinated to the paramagnetic metal center.^114 Dysprosium-induced shift (DIS) experiments for CG2 and CG3 were performed in 20 mM HEPES buffered to pH 7; CG4 and CG5 spectra were acquired in 10% acetonitrile in 20 mM HEPES buffered to pH 7 owing to solubility and stability of the Cu^+-bound complexes at higher Dy^3+ concentrations required for the DIS measurements (1-200 mmol/kg H2O). Dy concentrations were calculated using molality (with respect to H2O) since the ^17O shift represents the interaction between Dy^3+ and H2O; addition of CH3CN aids in stabilizing certain complexes but should not affect the DIS. The spectral results were calibrated to a DyCl3 standard (q=9) to determine the number of bound water molecules for the CG sensors with and without added Cu^+. A plot of varying DyCl3 concentrations versus DIS in pH 7 HEPES buffer has a slope of 324 ppm/(mol/kg H2O), which corresponds to a 36 ppm/(mol/kg H2O) shift per bound water molecule.
# The effects of DyCG2 on the chemical shift of ^17O-labeled H2O were determined in the absence and presence of 1 equiv Cu^+ at various concentrations of Dy^3+ (FIG. 8). In the absence of Cu^+, the measured ^17O shift response for DyCG2 is 9 ppm/(mol/kg H2O), corresponding to q=0.3. When 1 equiv of Cu^+ is added, the observed shift response increases to 72 ppm/(mol/kg H2O), corresponding to q=2.0. […] DIS measurements of DyCG4 and DyCG5 without Cu^+ show slopes of 7 ppm/(mol/kg H2O) (q=0.2) and 12 ppm/(mol/kg H2O) (q=0.3), respectively. Cu^+ binding increases the DIS slopes for DyCG4 and DyCG5 to […] ([…]) and 41 ppm/(mol/kg H2O) (q=1.0), respectively.
# [8] = Longitudinal relaxivity (r1) turn-on response to Cu2+ from T1 measurements at 60 MHz; type: physicochemical; conditions: pH 7, 37° C.
# Description: as §2, §1
# [9] = 10% CH3CN in 20 mM HEPES pH 7, 1 equiv Cu^+
# [10] = 10% CH3CN in 20 mM HEPES pH 7, no Cu^+
# [11] = 20 mM HEPES, pH 7, 1 equiv Cu^+
Compound,r1 (no Cu) [2],τs0 (electronic relaxation time at zero field) [3],r1p 20 MHz 25° C. [3],a (distance of closest approach of outer-sphere water protons) [3],Δ^2 (average quadratic transient zero field splitting) [3],τv (electronic correlation time) [3],q [3],τR (rotational correlation time) [3],r1 (1 equiv Cu) [4],redox specificity of relaxivity response (Cu^+ vs Cu^2+) [5],other results
CCSCCN(Cc1ccccc1)Cc1cccc(CN2CCN(CC(=O)[O-])CCN(CC(=O)[O-])CCN(CC(=O)[O-])CC2)n1.[Gd+3] [CG4],1.7 mM⁻¹ s⁻¹,99 ps,2.1 mM⁻¹ s⁻¹,4.2 ± 0.15 Å,3.4 ± 1.4 10^19 s^−2,25 ± 7.7 ps,0^c,130^d ps,6.6^b mM^−1s^−1,give turn-on relaxivity increases with Cu^+ but do not respond to Cu^2+,Cu^2+/+ E1/2 [1]: 0.40 V vs. SHE; Kd [6]: 0.014 nM
CCSCCN(C)Cc1cccc(CN2CCN(CC(=O)[O-])CCN(CC(=O)[O-])CCN(CC(=O)[O-])CC2)n1.[Dy+3] [DyCG5],–,–,–,–,–,–,–,–,–,–,"−Δ ppm/[Dy] (DIS slope) [7, 9]: 41 ppm/(mol/kg H2O); q (estimated number of inner-sphere water molecules) [7, 9]: 1.0; −Δ ppm/[Dy] (DIS slope) [7, 10]: 12 ppm/(mol/kg H2O)"
CCSCCN(CCSCC)Cc1cccc(CN2CCN(CC(=O)[O-])CCN(CC(=O)[O-])CCN(CC(=O)[O-])CC2)n1.[Dy+3] [DyCG2],–,–,–,–,–,–,–,–,–,–,"−Δ ppm/[Dy] (DIS slope) [7, 11]: 72 ppm/(mol/kg H2O); q (estimated number of inner-sphere water molecules) [7, 11]: 2.0; −Δ ppm/[Dy] (DIS slope) ([7]; 20 mM HEPES, pH 7, no Cu^+): 9 ppm/(mol/kg H2O)"
CCSCCN(CC(=O)[O-])Cc1cccc(CN2CCN(CC(=O)[O-])CCN(CC(=O)[O-])CCN(CC(=O)[O-])CC2)n1.[Gd+3] [CG6],2.2 mM⁻¹ s⁻¹,61 ps,2.2 mM⁻¹ s⁻¹,4.2 ± 0.13 Å,8.4 ± 2.0 10^19 s^−2,16 ± 2.7 ps,0^c,80^d ps,"3.8 mM^−1s^−1 and 3.8^b,c mM^−1s^−1",responds to both Cu^+ and Cu^2+ with the same relaxivity turn-on,"% increase in r1 ([8]; 1 equiv Cu^2+ vs no Cu, 20 mM HEPES): 73%; r1 (1 equiv Cu) ([8]; 1 equiv Cu^2+, 20 mM HEPES buffer): 3.8 mM^−1s^−1 and 3.8^b,c mM^−1s^−1; change in q ([3]; upon addition of Cu^2+, determined by NMRD): 1; % increase in r1 ([4]; 1 equiv Cu^+ vs no Cu, 20 mM HEPES): 73%"
O=C([O-])CN1CCN(CC(=O)[O-])CCN(Cc2cccc(CN3CCSCCSCCSCC3)n2)CCN(CC(=O)[O-])CC1.[Gd+3] [CG3],1.5 mM⁻¹ s⁻¹,96 ps,1.6 mM⁻¹ s⁻¹,4.7 ± 0.09 Å,3.2 ± 0.7 10^19 s^−2,27 ± 4.4 ps,0^c,130^d ps,6.9 mM^−1s^−1 and 6.9^b mM^−1s^−1,give turn-on relaxivity increases with Cu^+ but do not respond to Cu^2+,Cu^2+/+ E1/2 [1]: 0.58 V vs. SHE
O=S(=O)([O-])[O-].[Cu+2] [CuSO4],–,–,–,–,–,–,–,–,–,–,relaxivity ([2]; 20 mM HEPES buffer at 60 MHz and 37° C.): < 0.1 mM⁻¹ s⁻¹
CCSCCN(Cc1ccccc1)Cc1cccc(CN2CCN(CC(=O)[O-])CCN(CC(=O)[O-])CCN(CC(=O)[O-])CC2)n1.[Dy+3] [DyCG4],–,–,–,–,–,–,–,–,–,–,"−Δ ppm/[Dy] (DIS slope) [7, 9]: 84 ppm/(mol/kg H2O); q (estimated number of inner-sphere water molecules) [7, 9]: 2.1; −Δ ppm/[Dy] (DIS slope) [7, 10]: 7 ppm/(mol/kg H2O)"
O=C([O-])CN1CCN(CC(=O)[O-])CCN(Cc2cccc(CN3CCSCCSCCSCC3)n2)CCN(CC(=O)[O-])CC1.[Dy+3] [DyCG3],–,–,–,–,–,–,–,–,–,–,"−Δ ppm/[Dy] (DIS slope) [7, 11]: 79 ppm/(mol/kg H2O); q (estimated number of inner-sphere water molecules) [7, 11]: 2.2; −Δ ppm/[Dy] (DIS slope) ([7]; 20 mM HEPES, pH 7, no Cu^+): 11 ppm/(mol/kg H2O)"
